The data set has as its system mice. The data set is described as follows: Acute toxicity experiment with single intragastric administration to mice. It is filed as in vivo. The settings on record: for Quantity of animals (survival/death): 14 d observation. The procedure:
Acute toxicity experiment with single intragastric administration to mice of the compound of Example 36 according to the following method
(2) Preparation of test sample: a suitable amount of sample was weighed, and suspended in 0.5% CMC-Na, followed by vortex vibration till uniform. The resulting suspension was fully vibrated before administration.
According to the results of pre-experiment, experiment was conducted using Fixed-dose procedure. 70 mice were randomly divided into 7 groups, 10 mice each group, male and female in half. The administration doses were respectively: 1555, 1296, 1080, 900, 750, 625 and 520 mg/kg, and observation of the animals after administration continued for 14 days.
Observation was conducted once 5 min, 10 min, 20 min, 30 min, 1 h, 2 h, 4 h, 6 h, 8 h, 12 h, 18 h, 1 d, 2 d, 3 d, 7 d and 14 d respectively after administration, to record the animal death and toxic response.
LD50 was calculated by statistical analysis using SAS software.
2. Calculation of LD50 Using Bliss Method

Turning to `CSc1nccc(N2CCC(N(C)Cc3ccc(C#N)cc3)CC2)n1` [Example 36, N-methyl-N-(4-cyanobenzyl)-N-[1-(2-methylthiopyrimidin-4-yl)piperidin-4-yl]amine], the “Quantity of animals (survival/death)” value is recorded as 5/0 (520 mg/kg, Female); 5/0 (520 mg/kg, Male); 5/0 (625 mg/kg, Female); 4/1 (625 mg/kg, Male); 2/3 (750 mg/kg, Female); 4/1 (750 mg/kg, Male). The “Quantity of animals (survival/death)” value runs as follows: (900 mg/kg, Female) 2/3; (900 mg/kg, Male) 3/2; (1080 mg/kg, Female) 2/3; (1080 mg/kg, Male) 0/5; (1296 mg/kg, Female) 0/5; (1296 mg/kg, Male) 1/4. The “Quantity of animals (survival/death)” value (1555 mg/kg, Female) is recorded as 0/5 and the “Quantity of animals (survival/death)” value (1555 mg/kg, Male) is 0/5. Further, where the note is “1555 mg/kg dose group”, the “first animal death, time after administration” value is given as 5 min. Moreover, the gross anatomical examination result (animals dead during or killed at end of the experiment) is on record as “No obvious abnormality was found”. Further, the “survival of the dose group” value (mouse, in vivo) is on record as “all survived”. Also, the “clinical manifestations of animal poisoning” value (single intragastric administration, 520-1555 mg/kg) is on record as “muscle tremors, convulsions, eye closed, curled up into a ball, erected hair, reduced activity, loss of appetite”. In addition, the “LD50 and 95% confidence limit” value (single intragastric administration, mice, Bliss method, SAS) is recorded as 869.0 (776.5-969.4) mg/kg.

The values above are taken from US10023565B2, “N,N′ substituted piperidinamine compounds, and preparation method and usage thereof” (Institute of Pharmacology and Toxicology Academy of …, priority 2013, dated 2018).
